According to patent US11779600B2, “Methods of treating or preventing alzheimer's disease and associated conditions” (CEDARS-SINAI MEDICAL CENTER, priority 2016, dated 2023):

Columns and labels:
Type in all cases: cell-based, mouse
iNOS = iNOS expression in macrophages by quantitative ICC; details: 24 hours treatment, then fAβ1-42 for 30 min; quantitative ICC (FIG. 16D)
Experimental: To test amyloid-β phagocytosis by macrophage, in repeated experiments monocytes were isolated from the bone marrow of wild-type mice (n=18 mice) and differentiated into macro-phage by 7-day cultivation in complete RPMI-1640 medium (#21870; Life Technologies) with 10% serum and 20 ng/ml MCSF (#315-02; PeproTech). Bone marrow-derived macrophages (MΦBM) were generated from femurs and tibiae cultured for 6-7 days in complete RPMI 1640 medium (Life Technologies) with 10% FBS, 100 U/ml penicillin, 100 μg/ml streptomycin, 2 mM L-glutamine and 20 ng/ml MCSF (PeproTech). Primary cultures of macrophage were then plated at 1.2×10^5 cells per well (3-4 wells for each condition) in 24-well tissue-culture plates on glass cover-slips overnight. […] The fluorescent signal and its total area were determined and quantified by the conversion of individual images to greyscale and standardizing to baseline using histogram-based thresholds with NIH ImageJ software. […]
The expression of inducible nitric oxide synthase (iNOS), a hallmark of the proinflammatory M1 macrophage phenotype, in different treatment groups was assessed next (FIG. 16C-16D). […] Quantitative ICC assays confirmed a significant ˜1.3-fold increase in iNOS expression by minocycline-treated macrophages, and a substantial 48% reduction in Aβ^1-42 phagocytosis. […]

[1] = system: bone marrow-derived macrophages (MΦ^BM); assay: Fibrillar Aβ1-42 phagocytosis assay in bone marrow-derived macrophages; details: 24 hours treatment, then fAβ1-42 for 30 min; quantitative ICC (FIG. 16E)
Experimental: Lyophilized non-fluoro amyloid-β1-42 peptide (#20276; Anaspec) was initially monomerized by dissolving it in ice-cold HFIP (hexafluoroisopropanol) (#52512; Sigma) to a final concentration of 1 mM and then aliquoted in sterile siliconized microcentrifuge tubes. The HFIP was first evaporated while in the sterile hood and then under vacuum conditions in a SpeedVac for 2 h to remove any trace of HFIP; the peptide film was stored at −20° C. until use. To induce fibril formation, fluoro (HiLyte647; #64161; Anaspec) and non-fluoro amyloid-β1-42 films were resuspended in media to which 10% of sterile NaOH 60 mM was first added and the media were vortexed for 30 s. Then, a sterile 45% H2O and a sterile 45% solution of 20 mM NaH2PO4+Na2HPO4 (pH 7.4) were added, and the media were vortexed again and incubated on a shaker for 2 weeks at 37° C. Pre-formed amyloid-β1-42 fibrils were then sonicated for 60 s and diluted to 100 nM using the same media prior to the phagocytosis assay.
To test amyloid-β phagocytosis by macrophage, in repeated experiments monocytes were isolated from the bone marrow of wild-type mice (n=18 mice) and differentiated into macro-phage by 7-day cultivation in complete RPMI-1640 medium (#21870; Life Technologies) with 10% serum and 20 ng/ml MCSF (#315-02; PeproTech). Bone marrow-derived macrophages (MΦBM) were generated from femurs and tibiae cultured for 6-7 days in complete RPMI 1640 medium (Life Technologies) with 10% FBS, 100 U/ml penicillin, 100 μg/ml streptomycin, 2 mM L-glutamine and 20 ng/ml MCSF (PeproTech). Primary cultures of macrophage were then plated at 1.2×10^5 cells per well (3-4 wells for each condition) in 24-well tissue-culture plates on glass cover-slips overnight. Next, macrophages were either treated with 30 μg/ml GA (Copaxone®; TEVA Neuroscience), Brefeldin A (BFA; Sigma, 1X), or 10 μM Minocycline (Sigma) for the duration of 1, 3, or 24 h, or not treated (control group). Before addition of fibrillar amyloid-β1-42, the cells were chilled in a 4° C. ice bath for 5 min; immediately after addition of the preformed fibrillar amyloid-β1-42 (100 nM), the plates were centrifuged at 515g in 25° C. followed by incubation at 37° C. for 30 or 60 min. The cells were then rinsed with amyloid-β-free medium to remove non-incorporated amyloid-β and later washed twice with PBS. Methanol (99.8%) at −20° C. for 20 min or 4% paraformaldehyde at room temperature for 12 min was used for fixation of the cells followed by repeated washes with PBS. […] The fluorescent signal and its total area were determined and quantified by the conversion of individual images to greyscale and standardizing to baseline using histogram-based thresholds with NIH ImageJ software. […]

[2] = system: primary cortical neurons (CN); assay: Synaptic toxicity of Aβ1-42 assemblies in primary cortical neurons; details: for reduction in co-localized VGluT1/PSD95+ puncta number: 250 nM Aβ assemblies, 12 hours, vs CN in medium alone (FIG. 1D); for decrease of co-localized VGluT1/PSD95+ puncta synaptic number: overnight exposure (FIG. 2E)
Experimental: Initially, synaptic toxicity induced by stable, structurally defined fAβ1-42 and oAβ1-42 forms in primary cortical neurons (CN) was tested. Neurons were incubated for 12 hours with 250 nM of Aβ assemblies or with medium only (vehicle) during day 8 of culture. An extensive loss of pre- and post-synaptic (VGluT1 & PSD-95, respectively) area and number, induced by both f/oAβ1-42 forms, was clearly detected (FIG. 1A-C). Synaptic density quantification indicated a significant 50% reduction in co-localized VGluT1/PSD95^+ puncta number following fAβ1-42. Moreover, we detected a 70% decrease in puncta number by oAβ1-42 when compared with CN in medium alone (FIG. 1D; p<0.0001). […] Next, Aβ-induced neuritic retraction was assessed. CN were immunolabeled with anti-Tuj1 and the total neuritic length per neuron was precisely quantified (FIG. 2A-D). Overnight incubation of f/oAβ1-42 led to a massive neuritic retraction compared with control CN group (FIG. 2B vs. 2A). Whether untreated- and GA-treated BM-derived MΦ (CD68^+ cells) could prevent synaptic and neuritic loss was tested next. Primary CN and MΦ were co-cultured for 48 h and introduced Aβ1-42 forms during the last 12 hours of co-culture. […] Quantitative analysis of co-localized VGluT1/PSD95^+ puncta synaptic number confirmed decreases of 32% and 65% after overnight exposure to fAβ1-42 or oAβ1-42, respectively (FIG. 2E). […] The in vivo effects of Aβ accumulation on synaptopathy and possible synaptic rescue by GA immunization or grafted BM-CD115^+ Mo was assessed. Pre- and post-synaptic alterations in coronal brain sections of 13m old AD^+(ADtg) mice that received these immune-modulation interventions were quantified (FIG. 3A-D). High magnification z-stack images obtained from 19 predefined areas in hippocampus and entorhinal cortex were captured in respective Bregma regions (FIG. 3A-D).
P1 neurons are prepared as previously reported. Briefly, cortical neurons (CN) are obtained from 1 day old neonatal mice, dissociated, resuspended and plated in 24-well culture plate at 5×10^4/ml cells. BM-MΦ are obtained as described herein. In short, mononuclear enriched BM-derived cells are isolated from C57BL/6 mice and differentiated into MΦ for 7 days. […] Cultures are processed for quantification of synaptic density and neuritic length. […] Microphotographs are shot using a Carl Zeiss ApoTome-equipped Axio Imager ZI fluorescence microscope. Synaptic puncta number and synaptic immunoreactive area are quantified with Puncta Analyzer. Total neurite length is measured using NeuriteTracer. At least 3 coverslips, 36 images and 150 neurons for each condition are analyzed. Average puncta number, synaptic area per image or per neuron will be calculated. […] In brief, on day 9 of culture, spontaneous network activity of CN is recorded for 60 min to gain baseline. […]

Compound	increase in iNOS expression (iNOS) [fold]	reduction in Aβ1-42 phagocytosis [1] [%]	reduction in co-localized VGluT1/PSD95+ puncta number [2] [%]	decrease of co-localized VGluT1/PSD95+ puncta synaptic number [2] [%]
CN(C)c1ccc(O)c2c1C[C@H]1C[C@H]3[C@H](N(C)C)C(O)=C(C(N)=O)C(=O)[C@@]3(O)C(O)=C1C2=O [minocycline, Minocycline]	~1.3	48		
fAβ1-42: pre-formed fibrils of amyloid-β1-42 peptide			50	32
oAβ1-42: stabilized oligomeric amyloid-β1-42 assemblies			70	65
